Test results published in patent US6706663B2, “Herbicidal 3-heterocyclic substituted benzisothiazole and benzisoxazole compounds” (Wyeth, priority 2000, dated 2004).

Assays:
[1] = tested on: ABUTH (Abutilon theophrasti); experiment: Postemergence herbicidal evaluation; format: in vivo, Medic.
How it was run: (§1)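 Visual 0–9 injury scores versus control plants, covering stand, vigour, malformation, size, chlorosis and general appearance, taken four to five weeks post-spray and averaged over replicate tests. Plants were sprayed at roughly two weeks old and held on greenhouse benches.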

ORYSAT (Rice, Tebonnet) [2] = experiment: Postemergence herbicidal evaluation; format: in vivo, Oryza sativa, (L.) Tebonnet
How it was run: as §1

[3] = tested on: CASOB (Cassia obtusifolia); experiment: Postemergence herbicidal evaluation; format: in vivo, L.
How it was run: as §1

[4] = tested on: CHEAL (Chenopodium album); experiment: Postemergence herbicidal evaluation; format: in vivo, L.
How it was run: as §1

[5] = tested on: AMBEL (Ambrosia artemisifolia); experiment: Postemergence herbicidal evaluation; format: in vivo, L.
How it was run: as §1

ZEAMX (Corn, Field) = experiment: Postemergence herbicidal evaluation; format: in vivo, Zea mays, L.
How it was run: as §1

ORYSAT (Rice, Tebonnet) [6] = experiment: Flooded paddy, post-transplant rice tolerance; format: in vivo, Oryza sativa, (L.) Tebonnet; conditions: flooded paddy, post-transplant rice, rated 3-4 weeks after treatment, 0-9 rating scale
How it was run: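 Two ten-day-old Tebonnet rice seedlings transplanted into silt loam, then flooded with water held at 1.5–3 cm above soil; herbicide applied post-transplant. Plants kept in greenhouse and rated visually 0–9 versus untreated control for stand, vigor, malformation, size and chlorosis.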

[7] = tested on: CYPSE (Cyperus serotinus); experiment: Flooded paddy, preemergence weed control; format: in vivo, Rottb.; conditions: rated 3-4 weeks after treatment, 0-9 rating scale
How it was run: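 Seeds or propagules were planted 0.5 cm deep in silt loam and flooded to 1.5–3 cm. Compounds in 50/50 v/v aqueous/acetone were pipetted into the flood water at about 0.0080 to 0.1250 kg/ha. After 3–4 weeks in the greenhouse, effect was rated visually on a 0–9 scale versus untreated control.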

[8] = tested on: ECHORC (Echinochloa oryzoides); experiment: Flooded paddy, preemergence weed control; format: in vivo, Echinochloa oryzoides (Ard.) Fritsch.; conditions: rated 3-4 weeks after treatment, 0-9 rating scale
How it was run: (§2)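 Under paddy conditions, seeds or vegetative propagules go into the top 0.5 cm of silt loam; the soil is then flooded to 1.5–3 cm and kept so. Treated pots stay in a greenhouse; response is rated 0-9 visually versus control.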

[9] = tested on: TRZAWR (Wheat, Winter, cv Riband); experiment: Postemergence herbicidal evaluation; format: in vivo, Triticum aestivum
How it was run: as §1

[10] = tested on: CASOB (Cassia obtusifolia); experiment: Preemergence herbicidal evaluation; format: in vivo, L.; conditions: rated 4-5 weeks after treatment
How it was run: (§3)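 Preemergence soil spray, aq. acetone; greenhouse; visual 0–9 score vs control at 4–5 wk.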

[11] = tested on: CHEAL (Chenopodium album); experiment: Preemergence herbicidal evaluation; format: in vivo, L.; conditions: rated 4-5 weeks after treatment
How it was run: as §3

[12] = tested on: AMBEL (Ambrosia artemisifolia); experiment: Preemergence herbicidal evaluation; format: in vivo, L.; conditions: rated 4-5 weeks after treatment
How it was run: as §3

[13] = tested on: IPOHE (Ipomoea hederacea); experiment: Postemergence herbicidal evaluation; format: in vivo, (L.) Jacq.
How it was run: as §1

[14] = tested on: SAGPY (Sagittaria pygmaea); experiment: Flooded paddy, preemergence weed control; format: in vivo, L.; conditions: rated 3-4 weeks after treatment, 0-9 rating scale
How it was run: as §2

[15] = tested on: ABUTH (Abutilon theophrasti); experiment: Preemergence herbicidal evaluation; format: in vivo, Medic.; conditions: rated 4-5 weeks after treatment
[16] = tested on: TRZAWR (Wheat, Winter, cv Riband); experiment: Preemergence herbicidal evaluation; format: in vivo, Triticum aestivum; conditions: rated 4-5 weeks after treatment
How it was run: as §3

[17] = tested on: ECHCG (Echinochloa crus-galli); experiment: Postemergence herbicidal evaluation; format: in vivo, (L.) Beau
How it was run: as §1

ORYSAT (Rice, Tebonnet) [18] = experiment: Preemergence herbicidal evaluation; format: in vivo, Oryza sativa, (L.) Tebonnet; conditions: rated 4-5 weeks after treatment

`C#CCOC(=O)COc1ccsc1-c1nsc2ccc(-n3c(=O)cc(C(F)(F)F)n(C)c3=O)cc12` [Compound 39, 2-propynyl [[2-[5-[3,6-dihydro-3-methyl-2,6-dioxo-4-(trifluoromethyl)-1(2H)-pyrimidinyl]-1,2-benzisothiazol-3-yl]-3-thienyl]oxy]acetate] was tested, and the “Postemergence herbicidal rating, ABUTH” value ([1]; rate 0.0320 kg/ha) was 2.0, the “Postemergence herbicidal rating, ABUTH” value ([1]; rate 0.0620 kg/ha) was 9.0 and the “Postemergence herbicidal rating, ORYSAT” value (ORYSAT (Rice, Tebonnet) [2]; rate 0.0320 kg/ha) was 1.5. The “Postemergence herbicidal rating, ORYSAT” value (ORYSAT (Rice, Tebonnet) [2]; rate 0.0620 kg/ha) was 2.0, the “Postemergence herbicidal rating, CASOB” value ([3]; rate 0.0320 kg/ha) was 0.0 and the “Postemergence herbicidal rating, CASOB” value ([3]; rate 0.0620 kg/ha) was 0.0. The “Postemergence herbicidal rating, CHEAL” value ([4]; rate 0.0320 kg/ha) was 0.0, the “Postemergence herbicidal rating, CHEAL” value ([4]; rate 0.0620 kg/ha) was 4.0 and the “Postemergence herbicidal rating, AMBEL” value ([5]; rate 0.0320 kg/ha) was 3.0. For the same compound, the “Postemergence herbicidal rating, AMBEL” value ([5]; rate 0.0620 kg/ha) was 3.0, the “Postemergence herbicidal rating, ZEAMX” value (ZEAMX (Corn, Field); rate 0.0320 kg/ha) was 4.5 and the “Postemergence herbicidal rating, ZEAMX” value (ZEAMX (Corn, Field); rate 0.0620 kg/ha) was 5.0. The “herbicidal rating, ORYSAT (rice tolerance)” value (ORYSAT (Rice, Tebonnet) [6]; rate 0.0320 kg/ha) was 0.0, the “herbicidal rating, ORYSAT (rice tolerance)” value (ORYSAT (Rice, Tebonnet) [6]; rate 0.1250 kg/ha) was 4.0 and the “herbicidal rating, CYPSE” value ([7]; rate 0.0320 kg/ha) was 0.0. The “herbicidal rating, CYPSE” value ([7]; rate 0.1250 kg/ha) was 0.0, the “herbicidal rating, ECHORC” value ([8]; rate 0.0320 kg/ha) was 0.0 and the “herbicidal rating, ECHORC” value ([8]; rate 0.1250 kg/ha) was 0.0. For the same compound, the “Postemergence herbicidal rating, TRZAWR” value ([9]; rate 0.0320 kg/ha) was 1.5, the “Postemergence herbicidal rating, TRZAWR” value ([9]; rate 0.0620 kg/ha) was 2.0 and the “CASOB preemergence herbicidal rating” value ([10]; Rate 0.1250 kg/ha) was 0.0. The “CASOB preemergence herbicidal rating” value ([10]; Rate 0.2500 kg/ha) was 0.0, the “Preemergence herbicidal rating CHEAL” value ([11]; Rate 0.0620 kg/ha) was 5.0 and the “CHEAL preemergence herbicidal rating” value ([11]; Rate 0.1250 kg/ha) was 9.0. For the same compound, the “CHEAL preemergence herbicidal rating” value ([11]; Rate 0.2500 kg/ha) was 9.0, the “Preemergence herbicidal rating AMBEL” value ([12]; Rate 0.0620 kg/ha) was 0.0 and the “AMBEL preemergence herbicidal rating” value ([12]; Rate 0.1250 kg/ha) was 0.0. For the same compound, the “AMBEL preemergence herbicidal rating” value ([12]; Rate 0.2500 kg/ha) was 0.0, the “Postemergence herbicidal rating, IPOHE” value ([13]; rate 0.0320 kg/ha) was 4.0 and the “Postemergence herbicidal rating, IPOHE” value ([13]; rate 0.0620 kg/ha) was 4.0. For the same compound, the “herbicidal rating, SAGPY” value ([14]; rate 0.0320 kg/ha) was 0.0, the “herbicidal rating, SAGPY” value ([14]; rate 0.1250 kg/ha) was 3.0 and the “Preemergence herbicidal rating ABUTH” value ([15]; Rate 0.0620 kg/ha) was 1.0. The “ABUTH preemergence herbicidal rating” value ([15]; Rate 0.1250 kg/ha) was 1.0, the “ABUTH preemergence herbicidal rating” value ([15]; Rate 0.2500 kg/ha) was 9.0 and the “Preemergence herbicidal rating TRZAWR” value ([16]; Rate 0.0620 kg/ha) was 0.0. The “TRZAWR preemergence herbicidal rating” value ([16]; Rate 0.1250 kg/ha) was 0.0, the “TRZAWR preemergence herbicidal rating” value ([16]; Rate 0.2500 kg/ha) was 1.0 and the “Postemergence herbicidal rating, ECHCG” value ([17]; rate 0.0320 kg/ha) was 0.0. For the same compound, the “Postemergence herbicidal rating, ECHCG” value ([17]; rate 0.0620 kg/ha) was 1.0, the “Preemergence herbicidal rating ORYSAT” value (ORYSAT (Rice, Tebonnet) [18]; Rate 0.0620 kg/ha) was 0.0 and the “ORYSAT preemergence herbicidal rating” value (ORYSAT (Rice, Tebonnet) [18]; Rate 0.1250 kg/ha) was 0.0. For the same compound, the “ORYSAT preemergence herbicidal rating” value (ORYSAT (Rice, Tebonnet) [18]; Rate 0.2500 kg/ha) was 1.0.

For `Cc1cc(C)nc(-c2nsc3ccc(-n4c(=O)cc(C(F)(F)F)n(C)c4=O)cc23)n1` [Compound 40, 3-[3-(4,6-dimethyl-2-pyrimidinyl)-1,2-benzisothiazol-5-yl]-1-methyl-6-(trifluoromethyl)uracil], the “Postemergence herbicidal rating, ABUTH” value ([1]; rate 0.0320 kg/ha) was 9.0, the “Postemergence herbicidal rating, ABUTH” value ([1]; rate 0.0620 kg/ha) was 9.0 and the “Postemergence herbicidal rating, ORYSAT” value (ORYSAT (Rice, Tebonnet) [2]; rate 0.0320 kg/ha) was 2.0. The “Postemergence herbicidal rating, ORYSAT” value (ORYSAT (Rice, Tebonnet) [2]; rate 0.0620 kg/ha) was 2.0, the “Postemergence herbicidal rating, CASOB” value ([3]; rate 0.0320 kg/ha) was 1.0 and the “Postemergence herbicidal rating, CASOB” value ([3]; rate 0.0620 kg/ha) was 6.0. The “Postemergence herbicidal rating, CHEAL” value ([4]; rate 0.0320 kg/ha) was 4.0, the “Postemergence herbicidal rating, CHEAL” value ([4]; rate 0.0620 kg/ha) was 6.0 and the “Postemergence herbicidal rating, AMBEL” value ([5]; rate 0.0320 kg/ha) was 9.0. For the same compound, the “Postemergence herbicidal rating, AMBEL” value ([5]; rate 0.0620 kg/ha) was 9.0, the “Postemergence herbicidal rating, ZEAMX” value (ZEAMX (Corn, Field); rate 0.0320 kg/ha) was 4.5 and the “Postemergence herbicidal rating, ZEAMX” value (ZEAMX (Corn, Field); rate 0.0620 kg/ha) was 5.0. The “herbicidal rating, ORYSAT (rice tolerance)” value (ORYSAT (Rice, Tebonnet) [6]; rate 0.0320 kg/ha) was 5.0, the “herbicidal rating, ORYSAT (rice tolerance)” value (ORYSAT (Rice, Tebonnet) [6]; rate 0.1250 kg/ha) was 7.0 and the “herbicidal rating, CYPSE” value ([7]; rate 0.0320 kg/ha) was 0.0. The “herbicidal rating, CYPSE” value ([7]; rate 0.1250 kg/ha) was 0.0, the “herbicidal rating, ECHORC” value ([8]; rate 0.0320 kg/ha) was 2.0 and the “herbicidal rating, ECHORC” value ([8]; rate 0.1250 kg/ha) was 6.0. For the same compound, the “Postemergence herbicidal rating, TRZAWR” value ([9]; rate 0.0320 kg/ha) was 3.5, the “Postemergence herbicidal rating, TRZAWR” value ([9]; rate 0.0620 kg/ha) was 4.0 and the “Preemergence herbicidal rating CASOB” value ([10]; Rate 0.0620 kg/ha) was 1.0. The “Preemergence herbicidal rating CASOB” value ([10]; Rate 0.1250 kg/ha) was 2.0, the “Preemergence herbicidal rating CASOB” value ([10]; Rate 0.2500 kg/ha) was 5.0 and the “Preemergence herbicidal rating CHEAL” value ([11]; Rate 0.0620 kg/ha) was 9.0. For the same compound, the “Preemergence herbicidal rating CHEAL” value ([11]; Rate 0.1250 kg/ha) was 9.0, the “Preemergence herbicidal rating CHEAL” value ([11]; Rate 0.2500 kg/ha) was 9.0 and the “Preemergence herbicidal rating AMBEL” value ([12]; Rate 0.0620 kg/ha) was 3.0. For the same compound, the “Preemergence herbicidal rating AMBEL” value ([12]; Rate 0.1250 kg/ha) was 5.0, the “Preemergence herbicidal rating AMBEL” value ([12]; Rate 0.2500 kg/ha) was 9.0 and the “Postemergence herbicidal rating, IPOHE” value ([13]; rate 0.0320 kg/ha) was 9.0. For the same compound, the “Postemergence herbicidal rating, IPOHE” value ([13]; rate 0.0620 kg/ha) was 9.0, the “herbicidal rating, SAGPY” value ([14]; rate 0.0320 kg/ha) was 0.0 and the “herbicidal rating, SAGPY” value ([14]; rate 0.1250 kg/ha) was 5.0. The “Preemergence herbicidal rating ABUTH” value ([15]; Rate 0.0620 kg/ha) was 9.0, the “Preemergence herbicidal rating ABUTH” value ([15]; Rate 0.1250 kg/ha) was 9.0 and the “Preemergence herbicidal rating ABUTH” value ([15]; Rate 0.2500 kg/ha) was 9.0. The “Preemergence herbicidal rating TRZAWR” value ([16]; Rate 0.0620 kg/ha) was 1.0, the “Preemergence herbicidal rating TRZAWR” value ([16]; Rate 0.1250 kg/ha) was 5.0 and the “Preemergence herbicidal rating TRZAWR” value ([16]; Rate 0.2500 kg/ha) was 9.0. For the same compound, the “Postemergence herbicidal rating, ECHCG” value ([17]; rate 0.0320 kg/ha) was 0.0, the “Postemergence herbicidal rating, ECHCG” value ([17]; rate 0.0620 kg/ha) was 1.0 and the “Preemergence herbicidal rating ORYSAT” value (ORYSAT (Rice, Tebonnet) [18]; Rate 0.0620 kg/ha) was 1.0. The “Preemergence herbicidal rating ORYSAT” value (ORYSAT (Rice, Tebonnet) [18]; Rate 0.1250 kg/ha) was 2.0 and the “Preemergence herbicidal rating ORYSAT” value (ORYSAT (Rice, Tebonnet) [18]; Rate 0.2500 kg/ha) was 4.0.
